Test system: subjects with moderately to severely active RA who have an inadequate response to methotrexate (MTX)
Experiment: Study 2 (monotherapy) - ACR responses (ACR20/50/70)
Assay type: in vivo, human
Text: The terms “ACR20”, “ACR50” and “ACR70” as used herein are scores which indicate how much a patient's rheumatoid arthritis has improved according to criteria set out by the American College of Rheumatology (ACR). The ACR score represents a percentage. An ACR20 score means that a person's RA has improved by 20%, an ACR50 score means it has improved by 50%, and an ACR70 score means it has improved by 70%. Specifically, to qualify for an ACR20 score, a person with RA must have at least 20% fewer tender joints and at least 20% fewer swollen joints. In addition the patient must show a 20% improvement in at least three of the following five areas: the person's overall (global) assessment of his or her own RA, the physician's global assessment of the person's RA, the person's assessment of his or her own pain, the person's assessment of his or her own physical functioning, and the results of an erythrocyte sedimentation rate or C-reactive protein (CRP) blood test (both of which test for inflammation). ACR50 and ACR70 scores use the same criteria but require 50% and 70% improvement, respectively, (Felson et al., 1993). In the data presented herein the CRP blood test is used.
Randomized, double-blind, placebo-controlled, multicenter, phase IIb dose finding study of Compound 1 (dosed as a [Compound 1:HCl:3H2O]) administered for 24 weeks as monotherapy to subjects with moderately to severely active rheumatoid arthritis who have an inadequate response to methotrexate alone
Double-blind, placebo-controlled, monotherapy study in subjects with moderately to severely active RA who have an inadequate response to methotrexate (MTX) (oral or parenteral).
280 subjects randomized to one of 3 doses of Compound 1 (dosed as a [Compound 1:HCl:3H2O]) or to placebo, given once daily (q.d.).
Twelve weeks of treatment with Compound 1 (dosed as a [Compound 1:HCl:3H2O]) at 50 mg, 100 mg, or 200 mg q.d.; or placebo. At Week 12, all subjects on placebo and the subjects on the 50 mg dose who have not achieved 20% improvement in swollen joint count (SJC66) and tender joint count (TJC68) will be assigned to 100 mg q.d. in a blinded fashion and will continue treatment until Week 24. Subjects in the other groups will maintain their randomized treatment until Week 24.
The American College of Rheumatology (ACR) composite score, which evaluates clinical improvement relative to an initial assessment, is a commonly accepted efficacy end point for clinical trials in patients with rheumatoid arthritis. The ACR score correspond to a percentage improvement in pre-set parameters, and therefore measures the evolution of the disease in a patient. For example, ACR20 denotes at least 20% improvement in tender and swollen joint counts and in three of the following end points: global assessment by the patient, global assessment by the doctor, C reactive protein (CRP), patient's pain Visual Analogue Scale and Health Assessment Questionnaire Score. The number of swollen joints, ESR and CRP correlate with radiographic progression of joint damage, whereas tender joint counts, as well as global assessments by doctors and patients, and patients' reports of pain, are sensitive to change in clinical outcomes. Physical function, as assessed by the Health Assessment Questionnaire Score, is a potent predictor of the risk of disability in rheumatoid arthritis (Felson and American College of Rheumatology Committee to Reevaluate Improvement Criteria, 2007; Felson et al., 1993).
In particular, the list of parameters used to assess ACR score can be found in the Table XCVI below and the results of the ACR responses at week 12 via either NRI or LOCF are shown in the tables below. The Hommel-corrected p-value for the pairwise comparisons of each group with placebo is shown. […]

[1] = 100 mg q.d., week 4, 12 weeks results
[2] = 100 mg q.d., week 4, 24 weeks results
[3] = 100 mg q.d., week 8, 24 weeks results
[4] = 100 mg q.d., week 12, 12 weeks results
[5] = 100 mg q.d., week 12, 24 weeks results
[6] = 100 mg q.d., week 16, 24 weeks results
[7] = 100 mg q.d., week 20, 24 weeks results
[8] = 100 mg q.d., week 24, 24 weeks results
[9] = 100 mg q.d., week 8, 12 weeks results
[10] = 200 mg q.d., week 1, 12 weeks results
[11] = 200 mg q.d., week 1, 24 weeks results
[12] = 200 mg q.d., week 2, 12 weeks results
[13] = 200 mg q.d., week 2, 24 weeks results
[14] = 200 mg q.d., week 4, 12 weeks results
[15] = 200 mg q.d., week 4, 24 weeks results
[16] = 200 mg q.d., week 8, 24 weeks results
[17] = 200 mg q.d., week 12, 12 weeks results
[18] = 200 mg q.d., week 12, 24 weeks results
[19] = 200 mg q.d., week 16, 24 weeks results
[20] = 200 mg q.d., week 20, 24 weeks results
[21] = 200 mg q.d., week 24, 24 weeks results
[22] = 200 mg q.d., week 8, 12 weeks results

O=C(Nc1nc2cccc(-c3ccc(CN4CCS(=O)(=O)CC4)cc3)n2n1)C1CC1 [Compound 1, cyclopropanecarboxylic acid {5-[4-(1,1-dioxo-thiomorpholin-4-ylmethyl)-phenyl]-[1,2,4]triazolo[1,5-a]pyridin-2-yl}-amide]
ACR20 (NRI) [1]: 44.3% | ACR50 (LOCF) [1]: 18.6% | ACR50 (NRI) [1]: 18.6% | ACR70 (LOCF) [1]: 5.7% | ACR70 (NRI) [1]: 5.7% | ACR20 (LOCF) [2]: 44.3% | ACR20 (NRI) [2]: 44.3% | ACR50 (LOCF) [2]: 18.6% | ACR50 (NRI) [2]: 18.6% | ACR70 (LOCF) [2]: 5.7% | ACR70 (NRI) [2]: 5.7% | ACR50 (NRI) [3]: 25.7% | ACR70 (NRI) [3]: 11.4% | ACR50 (NRI) [4]: 34.3%% | ACR70 (NRI) [4]: 18.6%% | ACR50 (NRI) [5]: 35.7% | ACR70 (NRI) [5]: 18.6% | ACR50 (NRI) [6]: 38.6% | ACR70 (NRI) [6]: 17.1% | ACR50 (NRI) [7]: 41.4% | ACR70 (NRI) [7]: 24.3% | ACR50 (NRI) [8]: 40.0% | ACR70 (NRI) [8]: 25.7% | ACR20 (LOCF) [9]: 60.0% | ACR20 (NRI) [9]: 61.4% | ACR50 (LOCF) [9]: 25.7% | ACR50 (NRI) [9]: 25.7% | ACR70 (LOCF) [9]: 11.4% | ACR70 (NRI) [9]: 11.4% | ACR20 (LOCF) [10]: 39.1% | ACR20 (NRI) [10]: 39.1% | ACR50 (LOCF) [10]: 7.2% | ACR50 (NRI) [10]: 7.2% | ACR70 (LOCF) [10]: 1.4% | ACR70 (NRI) [10]: 1.4% | ACR20 (LOCF) [11]: 39.1% | ACR20 (NRI) [11]: 39.1% | ACR50 (LOCF) [11]: 7.2% | ACR50 (NRI) [11]: 7.2% | ACR70 (LOCF) [11]: 1.4% | ACR70 (NRI) [11]: 1.4% | ACR20 (LOCF) [12]: 53.6% | ACR20 (NRI) [12]: 56.5% | ACR50 (LOCF) [12]: 21.7% | ACR50 (NRI) [12]: 21.7% | ACR70 (LOCF) [12]: 4.3% | ACR70 (NRI) [12]: 4.3% | ACR20 (LOCF) [13]: 56.5% | ACR20 (NRI) [13]: 56.5% | ACR50 (LOCF) [13]: 21.7% | ACR50 (NRI) [13]: 21.7% | ACR70 (LOCF) [13]: 4.3% | ACR70 (NRI) [13]: 4.3% | ACR20 (LOCF) [14]: 62.3% | ACR20 (NRI) [14]: 63.8% | ACR50 (LOCF) [14]: 23.2% | ACR50 (NRI) [14]: 23.2% | ACR70 (LOCF) [14]: 11.6% | ACR70 (NRI) [14]: 11.6% | ACR20 (LOCF) [15]: 63.8% | ACR20 (NRI) [15]: 62.3% | ACR50 (LOCF) [15]: 23.2% | ACR50 (NRI) [15]: 23.2% | ACR70 (LOCF) [15]: 11.6% | ACR70 (NRI) [15]: 11.6% | ACR50 (NRI) [16]: 33.3% | ACR70 (NRI) [16]: 17.4% | ACR50 (NRI) [17]: 43.5%% | ACR70 (NRI) [17]: 13.0%% | ACR50 (NRI) [18]: 43.5% | ACR70 (NRI) [18]: 13.0% | ACR50 (NRI) [19]: 40.6% | ACR70 (NRI) [19]: 18.8% | ACR50 (NRI) [20]: 44.9% | ACR70 (NRI) [20]: 24.6% | ACR50 (NRI) [21]: 44.9% | ACR70 (NRI) [21]: 24.6% | ACR20 (LOCF) [22]: 72.5% | ACR20 (NRI) [22]: 73.9% | ACR50 (LOCF) [22]: 33.3% | ACR50 (NRI) [22]: 33.3% | ACR70 (LOCF) [22]: 17.4% | ACR70 (NRI) [22]: 17.4%

— patent US20180200257A1, “METHODS FOR THE TREATMENT OF INFLAMMATORY DISORDERS” (Galapagos NV, priority 2015, published 2018)
